Test [1] relates to IKKα-mediated p100 phosphorylation (Ser866/870) in U2OS cells. Nature of the test: FCS-stimulated p100 phosphorylation (Ser866/870), Western blotting. Conditions: Homo sapiens, 1 h pre-treatment, FCS 10% 4 h. Format: cell-based. The procedure:
(§1) To assess the translation of the biochemical potencies and selectivities described above to a cell-based setting, exemplars from the series were initially examined for inhibitory action against IKKs in the U2OS osteosarcoma cell line. This cell type was utilised to represent cells with a proliferative phenotype dependent on the constitutively activated IKKα-mediated non-canonical NF-κB pathway. Compounds 5r [SU1261]
(§2) U2OS cells were cultured in McCoy’s 5A Modified Medium, and PC-3M-Luc-C6 prostate cancer cells were cultured in Minimum Essential Medium (MEM), each containing 10% (v/v) Foetal Calf Serum (FCS), L-glutamine ([…]), and penicillin/streptomycin (250 units/mL; 100 μg/mL) and incubated in a humidified atmosphere at 37 °C with 5% (v/v) CO2. Cells were grown to near confluence and prior to experimentation rendered quiescent by serum deprivation for 24 h.
For examination of potential effects of compound on non-canonical NF-κB signalling, cells were exposed to vehicle (DMSO; 0.03–0.05% (v/v)) or increasing concentrations of compounds (0.01–30 µM) for 1 h prior to treatment with FCS (10% (v/v); for U2OS cells) or LTα1β2 (20 ng/mL; for PC-3M cells) for 4 h. The status of p-p100 (Ser 866/870) in whole-cell extracts prepared from 12-well plates was assessed by Western blotting, as described in McKenzie et al.. […] Thereafter, p52 and RelB status in crude nuclear extracts normalised for protein amounts were assessed by Western blotting.
Each figure/panel of Western blotting data represents one of at least three separate experiments. Western blots were scanned and imaged using Adobe Photoshop 5.0.2 software and polypeptide bands were semi-quantified by scanning densitometry using the Scion Image program. Data were normalised to fold expression/inhibition relative to ‘agonist plus vehicle’ treatment and expressed as mean ± s.e.m. […]

For test [2], the system named is IKKβ-mediated IκBα degradation in U2OS cells. Briefly: TNFα-stimulated IκBα degradation, Western blotting. Format: cell-based. Conditions: for effect on TNFα-stimulated IκBα degradation: 0.3–30 µM. Here is the method:
as §1, §2
To examine the potential impact of compounds on canonical NF-κB signalling, cells were then exposed to vehicle (DMSO; 0.05% (v/v)) or increasing concentrations of compounds (0.01–30 µM) for 1 h prior to treatment with TNF⍺ (20 ng/mL) for 30 min. Whole-cell extracts were prepared, and the status of IκB⍺, phospho-p65 (Ser536), p65, and phospho-p105 ([…]) was also assessed by Western blotting.
Each figure/panel of Western blotting data represents one of at least three separate experiments. Western blots were scanned and imaged using Adobe Photoshop 5.0.2 software and polypeptide bands were semi-quantified by scanning densitometry using the Scion Image program. Data were normalised to fold expression/inhibition relative to ‘agonist plus vehicle’ treatment and expressed as mean ± s.e.m. IC50 values were established by curve fitting using the Hill equation.
Figure 11 Compound 5r [SU1261] inhibits FCS-stimulated p100 phosphorylation (Ser866/870) with no impact on TNFα-stimulated IkBα degradation and limited impact on phosphorylation of p65 (Ser536) in U2OS osteosarcoma cells. […] (0.3–30 µM) for 1 h prior to treatment with FCS (10% (v/v)) for 4 h, and phospho-p100 (Ser866/870) was assessed by Western blotting. […]
A general note: A western blot detects proteins with antibodies after separation by electrophoresis.

A further test has as its target BrSK1(h) (Homo sapiens, UniProt Q8TDC3). Nature of the test: kinase panel. Format: biochemical. The method, boiled down:
(§3)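 Percentage inhibition was recorded for each compound against a broad kinase panel of 231 enzymes. Because of its close structural resemblance to another analogue, one compound was screened against 98 chosen kinases.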

Another test concerns the target CLK3(h) (Homo sapiens, UniProt P49761). Nature of the test: kinase panel. Format: biochemical. The method, boiled down:
as §3

Another test deals with EphA8(h) (Homo sapiens, UniProt P29322). Nature of the test: kinase panel. Format: biochemical. The method, boiled down: as §3
For another test, the target named is Fyn(h) (Homo sapiens, UniProt P06241). Nature of the test: kinase panel. Format: biochemical. The method, boiled down:
as §3

The target of a further test is Lck(h) activated (Homo sapiens, UniProt P06239). Briefly: kinase panel. Format: biochemical. The method, boiled down:
as §3

Another test addresses MST3(h) (Homo sapiens, UniProt Q9Y6E0). Briefly: kinase panel. Format: biochemical. The method, boiled down:
as §3

The next test has as its target NEK7(h) (Homo sapiens, UniProt Q8TDX7). Briefly: kinase panel. Format: biochemical. The method, boiled down: as §3
In a further test the target is PDGFRα(h) (Homo sapiens, UniProt P16234). Briefly: kinase panel. Format: biochemical. The method, boiled down: as §3
Sequence of PDGFRα(h) (P16234 24-1089): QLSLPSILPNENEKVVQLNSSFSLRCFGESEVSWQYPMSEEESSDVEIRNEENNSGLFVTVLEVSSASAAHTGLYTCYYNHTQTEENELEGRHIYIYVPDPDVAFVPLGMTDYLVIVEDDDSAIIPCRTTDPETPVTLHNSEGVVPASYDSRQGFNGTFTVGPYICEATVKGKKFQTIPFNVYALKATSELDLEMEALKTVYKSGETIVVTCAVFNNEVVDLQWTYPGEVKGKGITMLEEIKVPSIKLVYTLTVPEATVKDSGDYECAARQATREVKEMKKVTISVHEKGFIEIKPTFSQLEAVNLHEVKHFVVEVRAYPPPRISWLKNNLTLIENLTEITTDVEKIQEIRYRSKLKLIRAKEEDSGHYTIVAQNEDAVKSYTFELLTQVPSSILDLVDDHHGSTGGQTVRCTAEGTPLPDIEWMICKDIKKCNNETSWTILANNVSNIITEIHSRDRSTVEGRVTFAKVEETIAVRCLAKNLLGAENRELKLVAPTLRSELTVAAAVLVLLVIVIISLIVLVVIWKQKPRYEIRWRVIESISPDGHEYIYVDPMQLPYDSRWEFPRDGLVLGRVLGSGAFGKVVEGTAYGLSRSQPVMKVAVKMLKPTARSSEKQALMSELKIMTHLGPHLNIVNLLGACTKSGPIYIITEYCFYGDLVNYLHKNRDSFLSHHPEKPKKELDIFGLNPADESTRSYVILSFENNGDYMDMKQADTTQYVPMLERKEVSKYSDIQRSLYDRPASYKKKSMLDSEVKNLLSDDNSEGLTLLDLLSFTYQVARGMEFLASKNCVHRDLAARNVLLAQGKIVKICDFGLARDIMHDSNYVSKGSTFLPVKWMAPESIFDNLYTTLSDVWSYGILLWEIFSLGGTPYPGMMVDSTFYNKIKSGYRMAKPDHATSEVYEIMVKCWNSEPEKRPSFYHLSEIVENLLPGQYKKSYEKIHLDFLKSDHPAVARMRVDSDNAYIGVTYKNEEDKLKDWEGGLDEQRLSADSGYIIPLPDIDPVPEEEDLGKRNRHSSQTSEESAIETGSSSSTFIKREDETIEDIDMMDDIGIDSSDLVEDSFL
Another test concerns the target PKA(h) (Homo sapiens, UniProt P17612). Nature of the test: kinase panel. Format: biochemical. The method, boiled down: as §3
The target in a further test is PKCζ(h) (Homo sapiens, UniProt Q05513). Briefly: kinase panel. Format: biochemical. The method, boiled down:
as §3

Another test deals with PKCθ(h) (Homo sapiens, UniProt Q04759). Briefly: kinase panel. Format: biochemical. The method, boiled down: as §3
Another test deals with PTK5(h) (Homo sapiens, UniProt P42685). Briefly: kinase panel. Format: biochemical. The method, boiled down:
as §3

In a further test the target is SAPK2b(h) (Homo sapiens, UniProt Q15759). Briefly: kinase panel. Format: biochemical. The method, boiled down:
as §3

The next test has as its target SIK(h) (Homo sapiens, UniProt P57059). Briefly: kinase panel. Format: biochemical. The method, boiled down:
as §3

For a further test, the target named is ULK2(h) (Homo sapiens, UniProt Q8IYT8). Briefly: kinase panel. Format: biochemical. The method, boiled down:
as §3

The next test deals with mTOR/FKBP12(h) (Homo sapiens, UniProt P42345). Briefly: kinase panel. Format: biochemical. The method, boiled down:
as §3

Sequence of SIK(h) (P57059 whole entry): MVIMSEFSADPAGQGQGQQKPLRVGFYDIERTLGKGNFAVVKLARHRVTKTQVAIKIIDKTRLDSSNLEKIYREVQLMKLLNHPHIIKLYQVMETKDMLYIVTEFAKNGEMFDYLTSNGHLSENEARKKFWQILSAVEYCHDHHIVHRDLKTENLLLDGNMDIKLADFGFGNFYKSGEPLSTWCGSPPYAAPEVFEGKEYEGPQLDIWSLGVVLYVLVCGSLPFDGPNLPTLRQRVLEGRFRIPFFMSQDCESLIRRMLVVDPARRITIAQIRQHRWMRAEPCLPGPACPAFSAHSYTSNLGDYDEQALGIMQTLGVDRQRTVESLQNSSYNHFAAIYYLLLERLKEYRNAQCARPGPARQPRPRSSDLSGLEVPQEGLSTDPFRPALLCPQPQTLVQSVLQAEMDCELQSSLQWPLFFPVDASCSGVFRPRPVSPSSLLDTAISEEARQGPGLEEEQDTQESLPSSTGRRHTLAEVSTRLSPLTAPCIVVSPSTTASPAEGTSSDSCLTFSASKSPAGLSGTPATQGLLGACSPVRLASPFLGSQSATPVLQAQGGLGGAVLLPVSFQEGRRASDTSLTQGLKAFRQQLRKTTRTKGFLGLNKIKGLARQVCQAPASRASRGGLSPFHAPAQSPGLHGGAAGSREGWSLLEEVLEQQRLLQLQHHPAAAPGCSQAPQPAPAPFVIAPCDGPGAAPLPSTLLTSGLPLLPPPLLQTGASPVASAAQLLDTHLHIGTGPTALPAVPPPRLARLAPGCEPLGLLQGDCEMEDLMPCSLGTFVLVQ
Sequence of SAPK2b(h) (Q15759 whole entry): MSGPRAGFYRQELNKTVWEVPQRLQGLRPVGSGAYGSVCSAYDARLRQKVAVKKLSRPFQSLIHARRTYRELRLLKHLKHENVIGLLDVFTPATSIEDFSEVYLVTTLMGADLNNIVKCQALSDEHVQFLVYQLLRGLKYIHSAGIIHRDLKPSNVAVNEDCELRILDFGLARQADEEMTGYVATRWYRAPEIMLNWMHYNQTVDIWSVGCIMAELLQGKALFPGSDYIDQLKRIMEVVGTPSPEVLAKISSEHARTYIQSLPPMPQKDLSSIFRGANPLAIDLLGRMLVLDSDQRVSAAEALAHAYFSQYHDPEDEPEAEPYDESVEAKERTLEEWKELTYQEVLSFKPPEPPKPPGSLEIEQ
Sequence of PTK5(h) (P42685 whole entry): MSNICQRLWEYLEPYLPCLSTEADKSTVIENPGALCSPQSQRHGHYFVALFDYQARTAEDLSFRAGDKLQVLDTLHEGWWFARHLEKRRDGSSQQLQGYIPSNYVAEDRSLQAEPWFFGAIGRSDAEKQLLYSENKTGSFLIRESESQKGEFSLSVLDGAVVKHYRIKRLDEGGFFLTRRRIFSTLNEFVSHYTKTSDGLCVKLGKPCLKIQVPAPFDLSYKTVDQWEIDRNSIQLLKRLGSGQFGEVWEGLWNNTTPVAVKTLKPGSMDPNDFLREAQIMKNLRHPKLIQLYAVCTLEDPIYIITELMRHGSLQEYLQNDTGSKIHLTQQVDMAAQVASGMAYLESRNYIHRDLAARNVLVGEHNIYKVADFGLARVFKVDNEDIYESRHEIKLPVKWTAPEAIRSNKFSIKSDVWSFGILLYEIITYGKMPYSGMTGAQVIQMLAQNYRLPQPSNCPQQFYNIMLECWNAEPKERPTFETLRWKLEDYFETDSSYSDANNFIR
Sequence of PKCζ(h) (Q05513 whole entry): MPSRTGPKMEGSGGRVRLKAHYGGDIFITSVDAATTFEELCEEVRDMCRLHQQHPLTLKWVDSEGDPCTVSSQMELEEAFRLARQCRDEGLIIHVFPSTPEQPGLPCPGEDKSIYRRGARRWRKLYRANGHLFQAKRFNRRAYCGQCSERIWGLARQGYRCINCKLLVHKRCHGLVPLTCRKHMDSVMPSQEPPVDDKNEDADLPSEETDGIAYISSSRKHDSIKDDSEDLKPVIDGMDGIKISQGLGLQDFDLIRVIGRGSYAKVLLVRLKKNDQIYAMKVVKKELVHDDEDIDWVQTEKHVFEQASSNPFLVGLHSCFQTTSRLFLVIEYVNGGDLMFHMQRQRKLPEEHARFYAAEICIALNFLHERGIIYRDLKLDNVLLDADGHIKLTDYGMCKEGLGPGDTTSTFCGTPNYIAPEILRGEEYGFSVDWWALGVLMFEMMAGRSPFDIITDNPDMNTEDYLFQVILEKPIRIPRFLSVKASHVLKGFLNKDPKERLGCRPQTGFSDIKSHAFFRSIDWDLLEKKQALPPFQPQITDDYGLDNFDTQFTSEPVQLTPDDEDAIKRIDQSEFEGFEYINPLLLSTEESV
Sequence of BrSK1(h) (Q8TDC3 whole entry): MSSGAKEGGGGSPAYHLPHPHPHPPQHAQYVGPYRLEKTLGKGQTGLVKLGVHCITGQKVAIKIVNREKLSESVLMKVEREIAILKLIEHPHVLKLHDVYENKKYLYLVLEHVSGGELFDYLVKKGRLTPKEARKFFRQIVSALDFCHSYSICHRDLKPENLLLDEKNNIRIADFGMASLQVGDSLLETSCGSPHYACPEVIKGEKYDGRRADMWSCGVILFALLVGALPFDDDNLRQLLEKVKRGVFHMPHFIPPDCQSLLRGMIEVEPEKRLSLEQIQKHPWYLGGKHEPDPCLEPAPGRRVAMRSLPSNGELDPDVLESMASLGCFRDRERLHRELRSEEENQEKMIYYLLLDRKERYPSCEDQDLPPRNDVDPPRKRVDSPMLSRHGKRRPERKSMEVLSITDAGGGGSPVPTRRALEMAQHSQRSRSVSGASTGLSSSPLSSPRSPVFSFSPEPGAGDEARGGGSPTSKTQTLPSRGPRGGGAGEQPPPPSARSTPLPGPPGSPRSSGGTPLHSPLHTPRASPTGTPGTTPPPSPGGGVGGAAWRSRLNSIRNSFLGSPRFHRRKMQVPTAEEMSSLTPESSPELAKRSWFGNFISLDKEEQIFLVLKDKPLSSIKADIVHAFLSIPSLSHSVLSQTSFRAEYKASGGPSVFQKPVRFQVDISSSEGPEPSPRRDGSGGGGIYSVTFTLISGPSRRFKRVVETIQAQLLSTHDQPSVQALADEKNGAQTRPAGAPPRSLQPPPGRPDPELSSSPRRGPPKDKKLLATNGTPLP
Sequence of Fyn(h) (P06241 whole entry): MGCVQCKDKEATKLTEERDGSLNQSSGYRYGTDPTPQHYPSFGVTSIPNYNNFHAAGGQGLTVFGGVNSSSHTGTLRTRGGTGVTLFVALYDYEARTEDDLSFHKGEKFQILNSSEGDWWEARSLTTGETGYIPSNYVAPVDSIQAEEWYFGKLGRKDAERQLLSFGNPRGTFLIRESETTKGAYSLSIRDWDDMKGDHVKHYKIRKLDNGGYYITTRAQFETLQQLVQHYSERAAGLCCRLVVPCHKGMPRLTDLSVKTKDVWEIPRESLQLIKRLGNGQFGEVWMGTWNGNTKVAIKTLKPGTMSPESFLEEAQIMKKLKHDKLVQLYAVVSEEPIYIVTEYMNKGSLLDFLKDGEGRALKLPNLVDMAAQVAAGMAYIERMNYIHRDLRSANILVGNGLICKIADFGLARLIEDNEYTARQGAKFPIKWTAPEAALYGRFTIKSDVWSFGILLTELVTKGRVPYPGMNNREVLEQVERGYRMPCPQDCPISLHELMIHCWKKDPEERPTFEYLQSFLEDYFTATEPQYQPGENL
Sequence of NEK7(h) (Q8TDX7 whole entry): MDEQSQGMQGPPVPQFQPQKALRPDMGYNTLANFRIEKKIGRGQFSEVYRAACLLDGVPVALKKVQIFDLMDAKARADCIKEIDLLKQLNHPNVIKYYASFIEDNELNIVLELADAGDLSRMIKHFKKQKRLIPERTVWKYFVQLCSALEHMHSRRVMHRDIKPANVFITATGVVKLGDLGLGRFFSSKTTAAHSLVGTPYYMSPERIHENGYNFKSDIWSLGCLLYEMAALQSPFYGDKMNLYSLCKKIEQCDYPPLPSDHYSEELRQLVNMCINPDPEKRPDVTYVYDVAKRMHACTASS

Broadly, the IC50 is the concentration at which inhibition is half-maximal. Broadly, the inhibition is the drop in the measured response relative to a control, in per cent. Take `Nc1n[nH]c2ccc(-c3ccnc4[nH]c(-c5ccccc5)cc34)cc12` [Compound 4]: the IC50 in [1] stood at 690 nM; in test [2] (Homo sapiens, 1 h pre-treatment, TNFα 30 min) it was 620 nM. In addition, the inhibition at 1 µM against BrSK1(h) is 45%; against CLK3(h), 74%; on EphA8(h), -2%; on Fyn(h) it was 64%; against Lck(h) activated, 44%; against MST3(h) it was 6%. The inhibition at 1 µM on NEK7(h) is -2%; on PDGFRα(h), 8%; against PKA(h) it was 29%; against PKCζ(h), -1%; against PKCθ(h), 6%; on PTK5(h) it was 74%. For the same compound, the inhibition at 1 µM against SAPK2b(h) was -13%; at SIK(h), 56%; against ULK2(h) it was 2%; at mTOR/FKBP12(h), 3%.

As to `Nc1n[nH]c2ccc(-c3ccnc4[nH]c(-c5cccc(OCc6ccccc6)c5)cc34)cc12` [Compound 5r [SU1261]], the IC50 in test [1] came out at 2870 nM. Further, in [2], the “effect on TNFα-stimulated IκBα degradation” value was “did not impact”. Further, the inhibition at 1 µM against BrSK1(h) was -5%; on CLK3(h), 23%; against EphA8(h) it was -7%; against Fyn(h) it was 33%; against Lck(h) activated, 23%; against MST3(h) it was -3%. The inhibition at 1 µM against NEK7(h) is -2%; at PDGFRα(h) it was -12%; against PKA(h), -6%; on PKCζ(h) it was 4%; on PKCθ(h) it was -14%; on PTK5(h), 29%. In addition, the inhibition at 1 µM on SAPK2b(h) was -18%; on SIK(h), 8%; against ULK2(h), -4%; against mTOR/FKBP12(h) it was 2%.

Turning to `Nc1n[nH]c2ccc(-c3ccnc4[nH]c(-c5ccnc(OCc6ccccc6)c5)cc34)cc12` [Compound 6g [SU1349]], the IC50 in [1] stood at 8750 nM. Besides, the “effect on TNFα-stimulated IκBα degradation” value in [2] is listed as “no significant inhibition”.
